Target: recombinant human PAI-1 (Homo sapiens, UniProt P05121)
Test: PAI-1 inhibitory activity, Test Method A (tPA fluorogenic substrate, Tris buffer pH8.0, 37 C)
Type: biochemical
Details: Test Method A

Chain of recombinant human PAI-1 (P05121 24-402): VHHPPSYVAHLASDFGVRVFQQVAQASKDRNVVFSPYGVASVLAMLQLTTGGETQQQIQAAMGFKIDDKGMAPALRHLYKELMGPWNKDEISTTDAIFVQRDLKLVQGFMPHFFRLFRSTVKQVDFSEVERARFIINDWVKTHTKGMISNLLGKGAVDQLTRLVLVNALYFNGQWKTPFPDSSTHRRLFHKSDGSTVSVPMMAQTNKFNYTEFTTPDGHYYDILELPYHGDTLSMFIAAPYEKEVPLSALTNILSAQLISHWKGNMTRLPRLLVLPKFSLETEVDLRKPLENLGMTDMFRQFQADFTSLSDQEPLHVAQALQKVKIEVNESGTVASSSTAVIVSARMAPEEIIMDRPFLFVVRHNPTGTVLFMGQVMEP

Row | Inhibitory Ratio at 25 μM (%) (test compound 25 μM) | Inhibitory Ratio at 25 μM (%) (25 μM test compound) | SMILES
1 | 35% | – | CC1=NN(c2ccc(Cl)c(C(=O)O)c2)C(=O)C1=Cc1ccc(-c2ccccc2Cl)o1 [compound 188]
2 | >99% | – | O=C1SC(=Cc2cccc(O)c2O)C(=O)N1Cc1ccc(Cl)c(Cl)c1 [compound 8, 5-(2,3-Dihydroxybenzylidene)-3-(3,4-dichlorobenzyl)thiazolidine-2,4-dione]
3 | – | 59% | COCC1=NN(c2cc(Cl)cc(Cl)c2)C(=O)C1=Cc1ccc(Oc2ccccc2)cc1 [compound 527]
4 | 63% | – | CC1=NN(c2ccc(Cl)c(Cl)c2)C(=O)C1=Cc1cc(Br)ccc1O [compound 102]
5 | >99% | – | CC1=NN(c2cc(Cl)cc(Cl)c2)C(=O)C1=Cc1cc(O)c(O)c(O)c1 [compound 143]
6 | – | 72% | CCOC1=NN(c2ccc([N+](=O)[O-])cc2)C(=O)C1=Cc1cc(Br)ccc1O [compound 513]
7 | 40% | – | CC(C)(C)C1=NN(c2cccc(C(=O)O)c2)C(=O)C1=Cc1ccc(Cl)c(Cl)c1 [compound 198]
8 | – | 34% | COc1c(O)cccc1C=C1SC(=O)N(Cc2ccc(Cl)c(Cl)c2)C1=O [compound 329]
9 | >99% | – | O=C1SC(=Cc2cc(Br)cc(Br)c2O)C(=O)N1c1ccccc1 [compound 1]
10 | >99% | – | CC(C)C1=NN(c2cc(Cl)cc(Cl)c2)C(=O)C1=Cc1cc(Br)cc(Br)c1O [compound 105]
11 | – | >99% | O=C(O)c1ccc(NC(=O)c2cc(C=C3SC(=O)N(Cc4ccc(Cl)c(Cl)c4)C3=O)ccc2O)cc1 [compound 419]
12 | – | 65% | O=C(Nc1ccc(O)c(O)c1)c1cccc(C=C2SC(=O)N(Cc3ccc(Cl)c(Cl)c3)C2=O)c1 [compound 388, 5-[3-(3,4-Dihydroxyphenylcarbamoyl)benzylidene]-3-(3,4-dichlorobenzyl)thiazolidine-2,4-dione]
13 | – | >99% | CC(C)C1=NN(Cc2ccc(Cl)c(Cl)c2)C(=O)C1=Cc1cc(O)c(O)cc1O.N=C(N)NCCC[C@H](N)C(=O)O.N=C(N)NCCC[C@H](N)C(=O)O [compound 554, di(L-(+)-arginine) salt of 4-(2,4,5-trihydroxybenzylidene)-1-(3,4-dichlorobenzyl)-3-isopropyl-2-pyrazolin-5-one]
14 | – | >99% | COc1ccc(COC(=O)c2cc(C=C3SC(=O)N(Cc4ccc(-c5ccccc5)cc4)C3=O)ccc2O)cc1 [compound 362, 5-[3-(4-Methoxybenzyloxycarbonyl)-4-hydroxybenzylidene]-3-(4-phenylbenzyl)thiazolidine-2,4-dione]
15 | 54% | – | CCOC(=O)C1=NN(c2cccc(C(=O)OCC)c2)C(=O)C1=Cc1ccc2c(c1)OCO2 [compound 196]
16 | >99% | – | COC(=O)c1cccc(C=C2C(=O)N(c3cc(Cl)cc(Cl)c3)N=C2C(C)C)c1 [compound 204, 4-[3-(methoxycarbonyl)benzylidene]-1-(3,5-dichlorophenyl)-3-isopropyl-2-pyrazolin-5-one]
17 | 93% | – | COc1cc(OC)c(OC)cc1CN1C(=O)SC(=Cc2cccc(O)c2O)C1=O [compound 15, 5-(2,3-Dihydroxybenzylidene)-3-(2,4,5-trimethoxybenzyl)thiazolidine-2,4-dione]
18 | – | >99% | CCOC1=NN(c2ccc([N+](=O)[O-])cc2)C(=O)C1=Cc1cc(C=Cc2ccccc2)ccc1O [compound 541, 4-(2-hydroxy-5-styrylbenzylidene)-1-(4-nitrophenyl)-3-ethoxy-2-pyrazolin-5-one]
19 | – | >99% | O=C1SC(=Cc2ccc(O)c(F)c2)C(=O)N1Cc1ccc(Cl)c(Cl)c1 [compound 332]
20 | – | 52% | CCOC(=O)CCC1=NN(c2ccccc2)C(=O)C1=Cc1ccc2c(c1)OCO2 [compound 512, 4-(3,4-Methylenedioxybenzylidene)-1-phenyl-3-[2-(ethoxycarbonyl)ethyl]-2-pyrazolin-5-one]
21 | >99% | – | CC(C)C1=NN(c2ccc(Cl)c(Cl)c2)C(=O)C1=Cc1ccc(O)c(O)c1 [compound 140]
22 | – | >99% | O=C(O)c1c(O)cc(C=C2SC(=O)N(Cc3ccc(Cl)c(Cl)c3)C2=O)cc1O [compound 446]
23 | – | >99% | CC(C)C1=NN(c2cc(Cl)cc(Cl)c2)C(=O)C1=Cc1cc(Br)cc(O)c1O [compound 529]
24 | – | >99% | COc1ccc(-c2ccccc2)cc1NC(=O)c1cc(C=C2SC(=O)N(Cc3ccc(Cl)c(Cl)c3)C2=O)ccc1O [compound 455]

Row | Inhibitory Ratio at 25 μM (%) (test compound 25 μM) | Inhibitory Ratio at 25 μM (%) (25 μM test compound) | SMILES
25 | 30% | – | CC1=NN(c2ccc(S(N)(=O)=O)cc2)C(=O)C1=Cc1ccc(-c2cccc(Cl)c2)o1 [compound 186]
26 | – | 82% | CCOC1=NN(c2ccc([N+](=O)[O-])cc2)C(=O)C1=Cc1cc(O)c(O)cc1Br [compound 557, 4-(2-Bromo-4,5-dihydroxybenzylidene)-1-(4-nitrophenyl)-3-ethoxy-2-pyrazolin-5-one]
27 | >99% | – | O=C1SC(=Cc2ccc(O)c(O)c2)C(=O)N1Cc1cc(Cl)cc(Cl)c1 [compound 12]
28 | 89% | – | CC1=NN(c2ccc(Cl)c(Cl)c2)C(=O)C1=Cc1ccc(O)c(O)c1 [compound 152]
29 | – | >99% | CC(C)C1=NN(c2ccc(Cl)c(Cl)c2)C(=O)C1=Cc1cc(Oc2ccc(Br)cc2)ccc1[N+](=O)[O-] [Compound No. 562, 4-[2-Nitro-5-(4-bromophenoxy)benzylidene]-1-(3,4-dichlorophenyl)-3-isopropyl-2-pyrazolin-5-one]
30 | 36% | – | O=C(O)c1cccc(-c2ccc(C=C3SC(=S)N(c4cccc(F)c4)C3=O)o2)c1 [compound 62]
31 | 90% | – | O=C1SC(=Cc2ccc(Cl)c(Cl)c2)C(=O)N1Cc1cc(O)c(O)c(O)c1 [compound 78, 5-(3,4-Dichlorobenzylidene)-3-(3,4,5-trihydroxybenzyl)thiazolidine-2,4-dione]
32 | – | >99% | O=C1C(=Cc2ccc(O)c(O)c2)SC(=S)N1Cc1ccc(C=Cc2ccccc2)cc1 [compound 306, 5-(3,4-Dihydroxybenzylidene)-3-(4-styrylbenzyl)rhodanine]
33 | >99% | – | CC(C)(C)c1cc(CN2C(=O)SC(=Cc3ccc(O)c(O)c3)C2=O)cc(C(C)(C)C)c1O [compound 14]
34 | – | >99% | COC(=O)c1cc(C=C2SC(=O)N(Cc3ccc(Cl)cc3Cl)C2=O)cc(O)c1O [compound 341, 5-[3,4-Dihydroxy-5-(methoxycarbonyl)benzylidene]-3-(2,4-dichlorobenzyl)thiazolidine-2,4-dione]
35 | – | 72% | O=C(Nc1ccc(O)cc1)c1cc(C=C2SC(=O)N(Cc3ccc(Cl)c(Cl)c3)C2=O)ccc1O [compound 354]
36 | – | 97% | COc1ccc(NC(=O)c2cc(C=C3SC(=O)N(Cc4ccc(Cl)c(Cl)c4)C3=O)ccc2O)cn1 [compound 407, 5-{4-hydroxy-3-[(2-methoxypyridin-5-yl)carbamoyl]benzylidene}-3-(3,4-dichlorobenzyl)thiazolidine-2,4-dione]
37 | – | >99% | O=C(O)c1ccc(NC(=O)c2cccc(C=C3SC(=O)N(Cc4ccc(Cl)c(Cl)c4)C3=O)c2)cc1 [compound 389, 5-[3 (4-Carboxyphenylcarbamoyl)benzylidene]-3-(3,4-dichlorobenzyl)thiazolidine-2,4-dione]
38 | – | 80% | COc1cc(C=C2C(=O)N(c3cc(Cl)cc(Cl)c3)N=C2C(C)C)cc(Br)c1O [compound 539, 4-(3-Methoxy-4-hydroxy-5-bromobenzylidene)-1-(3,5-dichlorophenyl)-3-isopropyl-2-pyrazolin-5-one]
39 | 35% | – | COC(=O)c1cccc(N2N=C(C(C)C)C(=Cc3ccc(Br)o3)C2=O)c1 [compound 205]
40 | – | >99% | COC(=O)c1ccc(Cl)cc1NC(=O)c1cc(C=C2SC(=O)N(Cc3ccc(Cl)c(Cl)c3)C2=O)ccc1O [compound 453, 5-[4-hydroxy-3-(2-methoxycarbonyl-5-chlorophenylcarbamoyl)-benzylidene]-3-(3,4-dichlorobenzyl)thiazolidine-2,4-dione]
41 | 32% | – | CCOc1cc(C=C2C(=O)N(c3cccc(C(F)(F)F)c3)N=C2C)ccc1OCC(=O)O [compound 159]
42 | – | >99% | O=C(O)c1cc(C=C2SC(=O)N(Cc3ccc(Cl)c(Cl)c3)C2=O)cc(O)c1O [compound 464, 5-(3,4-dihydroxy-5-carboxybenzylidene)-3-(3,4-dichlorobenzyl)-thiazolidine-2,4-dione]
43 | – | 56% | CCOC(=O)CCC1=NN(c2ccccc2)C(=O)C1=Cc1cc(O)c(O)cc1O [compound 514]
44 | – | >99% | O=C(Nc1ccccc1)c1ccc(CN2C(=O)SC(=Cc3ccc(O)c(O)c3)C2=O)cc1 [compound 301, 5-(3,4-Dihydroxybenzylidene)-3-[4-(phenylcarbamoyl)benzyl]thiazolidine-2,4-dione]
45 | 82% | – | O=C1SC(=Cc2ccc(O)c(O)c2)C(=O)N1Cc1ccc([N+](=O)[O-])cc1 [compound 50, 5-(3,4-Dihydroxybenzylidene)-3-(4-nitrobenzyl)thiazolidine-2,4-dione]
46 | – | >99% | COC(=O)c1ccc(CN2C(=O)SC(=Cc3ccc(O)c(C(=O)Nc4ccc(Cl)c(Cl)c4)c3)C2=O)cc1 [compound 415, 5-[4-hydroxy-3-(3,4-dichlorophenylcarbamoyl)benzylidene]-3-(4-methoxycarbonylbenzyl)thiazolidine-2,4-dione]
47 | 30% | – | O=C1C(=Cc2ccc(Br)o2)C(C(F)(F)F)=NN1c1cccc([N+](=O)[O-])c1 [compound 195]
48 | 46% | – | CC1=NN(c2cccc(Cl)c2)C(=O)C1=Cc1ccc(O)c(O)c1 [compound 117]

Row | SMILES | Inhibitory Ratio at 25 μM (%) (test compound 25 μM) | Inhibitory Ratio at 25 μM (%) (25 μM test compound)
49 | COc1ccc(C(F)(F)F)cc1NC(=O)c1cc(C=C2SC(=O)N(Cc3ccc(Cl)c(Cl)c3)C2=O)ccc1O [compound 468] | – | >99%
50 | COc1cc(C=C2SC(=O)N(Cc3ccc(Cl)c(Cl)c3)C2=O)cc(C(=O)Nc2ccccc2)c1O [compound 440] | – | 82%
